Test results as given in BindingDB's records for doi:10.1161/01.cir.102.23.2836 (Nih, 2000).
“And” between values parts separate entries of the source, which are not always exact repeats. Identical values can stand only once.

Legend:
[1] = target: 5-hydroxytryptamine receptor 2B (Homo sapiens, UniProt P41595)
[2] = target: T1, 5-hydroxytryptamine receptor 2C (Rattus norvegicus, UniProt P08909)
T1 sequence (P08909 whole entry): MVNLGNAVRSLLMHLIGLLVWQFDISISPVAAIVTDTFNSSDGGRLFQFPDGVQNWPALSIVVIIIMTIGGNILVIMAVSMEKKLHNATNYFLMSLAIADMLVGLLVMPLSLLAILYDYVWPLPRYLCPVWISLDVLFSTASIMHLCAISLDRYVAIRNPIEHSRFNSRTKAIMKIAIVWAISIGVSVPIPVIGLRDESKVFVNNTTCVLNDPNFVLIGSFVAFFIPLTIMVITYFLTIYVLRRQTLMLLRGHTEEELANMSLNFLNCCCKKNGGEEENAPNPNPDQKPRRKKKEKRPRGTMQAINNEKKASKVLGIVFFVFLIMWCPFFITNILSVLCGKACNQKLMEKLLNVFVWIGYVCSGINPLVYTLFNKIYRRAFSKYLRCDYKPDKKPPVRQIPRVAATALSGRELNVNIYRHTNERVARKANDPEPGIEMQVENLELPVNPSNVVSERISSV

Sequence of 5-hydroxytryptamine receptor 2B (P41595 whole entry): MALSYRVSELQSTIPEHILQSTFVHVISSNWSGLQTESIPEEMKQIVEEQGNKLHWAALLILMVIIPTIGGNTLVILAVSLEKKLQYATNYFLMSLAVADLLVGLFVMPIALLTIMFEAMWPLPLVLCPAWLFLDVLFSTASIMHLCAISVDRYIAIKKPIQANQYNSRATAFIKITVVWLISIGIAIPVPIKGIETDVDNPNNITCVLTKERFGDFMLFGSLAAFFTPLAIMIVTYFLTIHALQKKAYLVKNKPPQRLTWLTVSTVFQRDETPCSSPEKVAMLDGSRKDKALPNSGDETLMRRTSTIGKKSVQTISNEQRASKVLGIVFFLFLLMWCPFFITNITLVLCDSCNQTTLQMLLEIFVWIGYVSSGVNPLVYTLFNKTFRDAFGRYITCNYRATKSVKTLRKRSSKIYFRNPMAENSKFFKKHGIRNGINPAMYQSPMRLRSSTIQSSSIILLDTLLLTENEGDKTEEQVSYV

SMILES	Ki [1]	Ki [2]
NCC[C@H](Oc1ccc(C(F)(F)F)cc1)c1ccccc1 [NORFLUOXETINE]	5060 nM	286 nM
O=c1n(CCCN2CCN(c3cccc(Cl)c3)CC2)nc2ccccn12 [2-{3-[4-(3-chlorophenyl)piperazin-1-yl]propyl}[1,2,4]triazolo[4,3-a]pyridin-3(2H)-one]	–	402 nM
CC(C)(N)Cc1ccccc1 [2-methyl-1-phenylpropan-2-amine]	> 10000 nM	> 10000 nM
C[C@H](N)Cc1cccc(C(F)(F)F)c1 [Norfenfluramine (+)]	52.1 nM and 11.2 nM and 47.8 nM	557 nM and 324 nM and 814 nM
CN1C[C@H](C(=O)N[C@]2(C)O[C@@]3(O)[C@@H]4CCCN4C(=O)[C@H](Cc4ccccc4)N3C2=O)C=C2c3cccc4[nH]cc(c34)C[C@H]21 [12'-hydroxy-2'-methyl-5'alpha-(phenylmethyl)ergotaman-3',6',18-trione]	3 nM	12 nM
CC[C@@H](CO)NC(=O)[C@@H]1C=C2c3cccc4[nH]cc(c34)C[C@H]2N(C)C1 [Methylergometrine]	0.49 nM	–
CC[C@@H](CO)NC(=O)[C@@H]1C=C2c3cccc4c3c(cn4C)C[C@H]2N(C)C1	–	1.8 nM
CCNC(C)Cc1cccc(C(F)(F)F)c1 (stereo not drawn) [NSC_3337]	–	3180 nM and 6250 nM and 3420 nM
Clc1cccc(N2CCNCC2)c1 [mCPP]	–	59 nM
